Test results published in patent US10000450B2, “N,N-substituted 3-aminopyrrolidine compounds useful as monoamines reuptake inhibitors” (OTSUKA PHARMACEUTICAL CO., LTD., priority 2005, dated 2018).
Where a name gives a salt, the structure may show the parent alone.

Tests used:
[1] = biological target: T1, Serotonin (5-HT) uptake into rat brain synaptosome (frontal cortex) (Rattus norvegicus, UniProt P31652); experiment: Inhibitory activity on serotonin (5-HT) uptake into rat brain synaptosome; assay type: biochemical; conditions: tritium-labeled 5-HT 8 nM uptake, 10 min at 37° C., read-out: 50% inhibittory concentration
T1 construct: used as crude synaptosome fractions; from tissue; host or cells: rat (male Wistar) frontal cortex, crude synaptosome fraction
Description: Pharmacological Test 1 Evaluation of Inhibitory Activity of Test Compound on Serotonin (5-HT) Uptake into Rat Brain Synaptosome
(§1) Male Wistar rats were decapitated and the brains were removed and the frontal cortices were dissected. The separated frontal cortices were homogenized in 20 volumes as weight of 0.32 M sucrose solution by a Potter-type homogenizer. The homogenate was centrifuged at 1000 g at 4° C. for 10 minutes, and the supernatant was then centrifuged at 20000 g at 4° C. for 20 minutes. The pellet was resuspended in incubation buffer (20 mM HEPES buffer (pH 7.4)) containing 10 mM glucose, 145 mM sodium chloride, 4.5 mM potassium chloride, 1.2 mM magnesium chloride, and 1.5 mM calcium chloride) and used as crude synaptosome fractions.
(§2) The uptake reaction mixture was suspended in a final volume of 200 μl containing pargyline (final concentration of 10 μM) and sodium ascorbate (final concentration of 0.2 mg/ml) in each well of 96-well-round-bottom-plate.
Solvent, unlabeled 5-HT, and serial diluted test compounds were added in each well, and synaptosome fraction of 1/10 volume of the final volume were added. After a 10 min preincubation at 37° C., the uptake was initiated by the addition of tritium-labeled 5-HT solution (final concentration of 8 nM) at 37° C. The uptake was stopped after 10 minutes by filtration under vacuum through a 96-well glass fiber filter plate. After washing the filter with cold physiological saline and drying up, Microscint-O (Perkin-Elmer) was added, and remained radioactivity on the filter was measured.
(§3) The total uptake activity with only solvent was determined as 100%, and the nonspecific uptake activity with unlabeled 5-HT (final concentration of 10 μM) was determined as 0%. The 50% inhibitory concentrations were calculated based on the concentrations of the test compounds and their inhibitory activities.

[2] = biological target: T2, Norepinephrine (NE) uptake into rat brain synaptosome (hippocampus) (Rattus norvegicus, UniProt Q63380); experiment: Inhibitory activity on norepinephrine (NE) uptake into rat brain synaptosome; assay type: biochemical; conditions: tritium-labeled NE 12 nM uptake, 10 min at 37° C., read-out: 50% inhibitory concentration
T2 construct: used as crude synaptosome fraction; from tissue; host or cells: rat (male Wistar) hippocampus, crude synaptosome fraction
Description: Pharmacological Test 2 Evaluation of Inhibitory Activity of Test Compound on Norepinephrine (NE) Uptake into Rat Brain Synaptosome
as §1, with “hippocampi” for “frontal cortices”, “fraction.” for “fractions.”
The uptake reaction mixture was suspended in final volume of 200 μl containing pargyline (final concentration of 10 μM) and sodium ascorbate (final concentration of 0.2 mg/ml) in each well of 96-well-round-bottom-plate.
(§4) Solvent, unlabeled NE, and serial diluted test compounds were added to each well, and synaptosome fraction of 1/10 volume of the final volume were added. After 10 minutes preincubation at 37° C., the uptake was initiated by the addition of tritium-labeled NE solution (final concentration of 12 nM) at 37° C. The uptake was stopped after 10 minutes by filtration under vacuum through a 96-well glass fiber filter plate. After washing the filter with cold physiological saline and drying up, Microscint-0 (Perkin-Elmer) was added, and remained radioactivity on the filter was measured.
as §3, with “NE” for “5-HT”

[3] = biological target: T3, Dopamine (DA) uptake into rat brain synaptosome (striatum) (Rattus norvegicus, UniProt P23977); experiment: Inhibitory activity on dopamine (DA) uptake into rat brain synaptosome; assay type: biochemical; conditions: tritium labeled DA 2 nM uptake, 10 min at 37° C., read-out: 50% inhibitory concentration
T3 construct: used as crude synaptosome fraction; from tissue; host or cells: rat (male Wistar) striatum, crude synaptosome fraction
Description: Pharmacological Test 3 Evaluation of Inhibitory Activity of Test Compound on Dopamine (DA) into Rat Brain Synaptosome
as §1, with “striata” for “frontal cortices”, “fraction.” for “fractions.”
as §2
as §4, with “unlabeled DA,” for “unlabeled NE,”, “added in” for “added to”, “After 10-min” for “After 10 minutes”, “of tritium labeled DA” for “of tritium-labeled NE”, “of 2” for “of 12”, “was added” for “was added,”
as §3, with “The” for “The total”, “DA” for “5-HT”

T2 sequence (Q63380 1-617): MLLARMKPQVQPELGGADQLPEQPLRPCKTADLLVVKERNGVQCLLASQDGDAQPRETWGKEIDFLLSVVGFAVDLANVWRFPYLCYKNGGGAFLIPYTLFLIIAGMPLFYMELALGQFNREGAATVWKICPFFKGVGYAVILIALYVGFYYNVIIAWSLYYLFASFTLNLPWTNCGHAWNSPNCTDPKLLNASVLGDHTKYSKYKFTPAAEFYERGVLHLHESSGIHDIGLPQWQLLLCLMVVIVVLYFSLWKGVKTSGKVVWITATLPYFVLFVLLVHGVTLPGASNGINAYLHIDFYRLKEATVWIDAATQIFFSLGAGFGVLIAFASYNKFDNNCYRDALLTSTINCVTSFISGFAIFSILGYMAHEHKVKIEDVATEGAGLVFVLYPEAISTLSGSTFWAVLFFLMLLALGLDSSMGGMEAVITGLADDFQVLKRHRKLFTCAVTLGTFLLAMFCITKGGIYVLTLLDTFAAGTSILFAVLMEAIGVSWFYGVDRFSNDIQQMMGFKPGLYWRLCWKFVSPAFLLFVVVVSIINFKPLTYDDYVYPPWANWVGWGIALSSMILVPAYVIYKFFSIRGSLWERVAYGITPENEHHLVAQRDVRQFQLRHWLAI
T1 sequence (P31652 whole entry): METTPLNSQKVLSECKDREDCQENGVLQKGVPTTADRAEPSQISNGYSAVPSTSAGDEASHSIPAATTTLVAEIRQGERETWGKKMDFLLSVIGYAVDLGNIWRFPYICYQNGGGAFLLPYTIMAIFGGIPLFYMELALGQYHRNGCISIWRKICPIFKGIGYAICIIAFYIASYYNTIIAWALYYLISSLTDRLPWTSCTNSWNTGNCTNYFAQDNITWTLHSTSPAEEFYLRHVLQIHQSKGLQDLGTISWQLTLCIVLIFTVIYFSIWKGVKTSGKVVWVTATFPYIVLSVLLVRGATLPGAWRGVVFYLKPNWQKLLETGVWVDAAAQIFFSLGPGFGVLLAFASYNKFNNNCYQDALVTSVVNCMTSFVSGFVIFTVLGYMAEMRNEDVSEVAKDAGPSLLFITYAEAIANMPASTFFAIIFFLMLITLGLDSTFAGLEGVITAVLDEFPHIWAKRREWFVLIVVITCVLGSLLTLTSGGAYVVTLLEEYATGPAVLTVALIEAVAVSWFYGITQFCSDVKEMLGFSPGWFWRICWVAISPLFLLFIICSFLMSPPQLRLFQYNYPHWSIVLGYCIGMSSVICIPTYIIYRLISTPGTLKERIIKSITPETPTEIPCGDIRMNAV
T3 sequence (P23977 whole entry): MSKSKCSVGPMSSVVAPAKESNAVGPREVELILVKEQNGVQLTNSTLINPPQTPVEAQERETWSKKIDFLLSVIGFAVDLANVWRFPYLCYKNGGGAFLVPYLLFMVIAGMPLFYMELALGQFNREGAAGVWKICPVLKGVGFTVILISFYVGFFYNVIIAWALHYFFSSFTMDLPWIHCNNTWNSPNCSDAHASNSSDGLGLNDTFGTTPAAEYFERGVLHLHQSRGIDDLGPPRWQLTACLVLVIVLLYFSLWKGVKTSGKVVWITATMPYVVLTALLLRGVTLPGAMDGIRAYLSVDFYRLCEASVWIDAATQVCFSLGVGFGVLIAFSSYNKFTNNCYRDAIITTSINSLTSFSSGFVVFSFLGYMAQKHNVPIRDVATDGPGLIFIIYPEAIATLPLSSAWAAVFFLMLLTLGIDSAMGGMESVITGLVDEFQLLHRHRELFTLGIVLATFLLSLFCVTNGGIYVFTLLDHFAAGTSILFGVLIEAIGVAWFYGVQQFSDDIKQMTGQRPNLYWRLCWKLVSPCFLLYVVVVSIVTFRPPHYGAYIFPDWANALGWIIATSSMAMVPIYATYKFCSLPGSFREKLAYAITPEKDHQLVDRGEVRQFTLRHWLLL

Row | melting point [°C] | IC50 [1] [nM] | IC50 [2] [nM] | IC50 [3] [nM] | Compound
1 | 144 to 146.2 |  |  |  | Fc1cccc(N(c2ccc(C(F)(F)F)cc2)[C@H]2CCNC2)c1.O=C(O)/C=C/C(=O)O.O=C(O)/C=C/C(=O)O
2 | 158 to 160 |  |  |  | c1ccc(N(c2ccc3sccc3c2)[C@H]2CCNC2)cc1 (as salt: hydrochloride) [Example 116]
3 | 141.7 to 143.8 |  |  |  | Cc1ccc(N(c2ccccc2)[C@H]2CCNC2)cc1 (as salt: fumarate) [Example 22]
4 | 152.9 to 155.5 |  |  |  | CSc1ccc(N(c2ccccc2)[C@H]2CCNC2)cc1 (as salt: fumarate) [Example 19]
5 | 131.6 to 133.3 |  |  |  | Fc1ccc(N(c2ccc3ccsc3c2)[C@H]2CCNC2)cc1 (as salt: fumarate) [Example 114]
6 | 152.4 to 154.4 |  |  |  | Fc1ccc(N(c2ccccn2)[C@H]2CCNC2)cc1Cl (as salt: fumarate) [Example 154]
7 | 194 to 195 | 3 | 0.4 | 45 | CS(=O)(=O)O.CS(=O)(=O)O.Fc1ccc(N(c2cccnc2)[C@H]2CCNC2)cc1Cl [Example 7, (3-chloro-4-fluorophenyl) pyridin-3-yl-(S)-pyrrolidin-3-ylamine dimethanesulfonate]
8 | 150 to 156 |  |  |  | Fc1ccc(N(c2ccc3cnsc3c2)[C@H]2CCNC2)cc1Cl (as salt: hydrochloride) [Example 930]
9 | 108 to 110 |  |  |  | Clc1ccc(N(c2cccnc2)[C@H]2CCNC2)cc1Cl (as salt: hydrochloride) [Example 242]
10 | 96 to 98 |  |  |  | Fc1ccc(N(c2ccc(Cl)c(Cl)c2)[C@H]2CCNC2)nc1 (as salt: hydrochloride) [Example 961]
11 | 174 to 175 |  |  |  | N#Cc1ccc(N(c2ccc(F)c(Cl)c2)[C@H]2CCNC2)cc1 (as salt: fumarate) [Example 73]
12 | 229 to 231 |  |  |  | Clc1ccc(N(c2ccncc2)[C@H]2CCNC2)cc1Cl (as salt: salt) [Example 273]
13 | 241.5 to 243.5 |  |  |  | c1ccc(N(c2ccc3sccc3n2)[C@H]2CCNC2)cc1 (as salt: hydrochloride) [Example 934]
14 | 208 to 211 |  |  |  | CCN1CCN(c2ccc(N(c3ccc(F)c(Cl)c3)[C@H]3CCNC3)nc2)CC1 (as salt: hydrochloride) [Example 201]
15 | 143 to 145 |  |  |  | Fc1ccc(N(c2ccccc2)[C@H]2CCNC2)cc1 (as salt: fumarate) [Example 20]
16 | 212 to 215 |  |  |  | Fc1ccc(N(c2ccc(N3CCNCC3)cn2)[C@H]2CCNC2)cc1Cl (as salt: hydrochloride) [Example 200]
17 | 136 to 137 |  |  |  | Fc1ccc(N(c2ccc(Cl)nc2)[C@H]2CCNC2)cc1Cl (as salt: fumarate) [Example 244]
18 | 135 to 138 |  |  |  | Clc1ccc(N(c2ccccn2)[C@H]2CCNC2)cc1Cl (as salt: hydrochloride) [Example 188]
19 | 135 to 136 |  |  |  | Fc1ccc(N(c2ccsc2)[C@H]2CCNC2)cc1Cl (as salt: fumarate) [Example 278]
20 | 120 to 124 |  |  |  | Clc1ccc(N(c2cnccn2)[C@H]2CCNC2)cc1Cl (as salt: hydrochloride) [Example 963]
21 | 128 to 129.9 |  |  |  | Fc1ccc(N(c2nccs2)[C@H]2CCNC2)cc1Cl (as salt: fumarate) [Example 131]
22 |  | 0.8 | 1 | 6.8 | Fc1ccc(N(c2ccc3cnsc3c2)[C@H]2CCNC2)cc1Cl [Example 930]
23 | 115 to 117 | 1.2 | 0.7 | 4.8 | Fc1ccc(N(c2ccc(-c3cnco3)cc2)[C@H]2CCNC2)cc1Cl [Example 90]
24 |  | 2.6 | 0.3 | 9.4 | Fc1cncc(N(c2ccc(F)c(Cl)c2)[C@H]2CCNC2)c1 [Example 894]
